Several values for one entry are separate records, joined by “and”; a condition that tells them apart may be missing. Identical values can stand only once.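 Method: 48-hour compound exposure of cells in 96-well plates, five concentrations, linear interpolation of endpoints. GI50 is the concentration that inhibits growth by half. At the TGI there is no net growth.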
How the values were obtained:
Test in all cases: inhibition of tumour cell growth, NCI panel, 48 h
CAKI-1 renal = test system: CAKI-1 renal
COLO 205 colon = test system: COLO 205 colon
HL-60(TB) leukemia = test system: HL-60(TB) leukemia
HOP-62 NSCLC = test system: HOP-62 NSCLC
HOP-92 NSCLC = test system: HOP-92 NSCLC
IGROV1 ovarian = test system: IGROV1 ovarian
NCI-H460 lung = test system: NCI-H460 lung
RPMI-8226 leukemia = test system: RPMI-8226 leukemia
SF-539 CNS = test system: SF-539 CNS
PC-3 prostate = test system: PC-3 prostate

Row | Compound | GI50 (CAKI-1 renal) [µM] | TGI (CAKI-1 renal) | GI50 (COLO 205 colon) [µM] | TGI (COLO 205 colon) | GI50 (HL-60(TB) leukemia) [µM] | TGI (HL-60(TB) leukemia) [µM] | GI50 (HOP-62 NSCLC) [µM] | TGI (HOP-62 NSCLC) | GI50 (HOP-92 NSCLC) [µM] | TGI (HOP-92 NSCLC) | GI50 (IGROV1 ovarian) [µM] | TGI (IGROV1 ovarian) | GI50 (NCI-H460 lung) [µM] | TGI (NCI-H460 lung) [µM] | GI50 (RPMI-8226 leukemia) [µM] | TGI (RPMI-8226 leukemia) [µM] | GI50 (SF-539 CNS) [µM] | TGI (SF-539 CNS) | TGI (PC-3 prostate) [µM] | GI50 (PC-3 prostate) [µM]
1 | CC(C)([NH-])CO.CC(C)([NH-])CO.[Cl][Cd][Cl] | 18.3 | 32.3 µM | 26.1 | 55.8 µM | 26.9 | 55.8 | > 100 | > 100 µM | 19.3 | 34 µM | 19 | 36.7 µM | 11.3 | 24.6 | 14.5 | 43.8 | 18.7 | 33.2 µM |  | 
2 | C[C@]12CC/C(=N\O)C=C1CC[C@@H]1C2CC[C@@]2(C)C1CC[C@@H]2OC1CCCCO1 (some centres undefined) |  | > 10 µM |  | 32.6 µM |  |  |  | > 100 µM |  | 31.9 µM |  | > 100 µM |  | 45.7 |  | 37.7 |  | > 10 µM |  | 
3 | Cc1ccc(S(=O)(=O)NC2(C=O)CCCC3CCCCC32)cc1 (centres undefined) |  | > 100 µM |  | > 100 µM |  | > 100 |  | > 100 µM |  |  |  | > 100 µM |  | > 100 |  | > 100 |  | > 100 µM |  | 
4 | O=c1[nH]c(=S)[nH]c2c1CN(CCCN1CCOCC1)CN2 |  | > 100 µM |  | 38.6 µM |  |  |  | > 100 µM |  | > 100 µM |  | > 100 µM |  | 87.2 |  | 75.6 |  | 58.2 µM | 57.1 | 
5 | COc1ccc(/C(Cl)=C(\C=N/O)c2ccc(OC)c(OC)c2)cc1OC |  | > 100 µM |  | > 100 µM |  | > 100 |  | > 100 µM |  | > 100 µM |  | > 100 µM |  | > 100 |  | > 100 |  | > 100 µM |  | 
6 | O=C(Nc1ccc(Cl)c(Cl)c1)Nc1c(Oc2ccc(Cl)c(Cl)c2)ccc(Cl)c1S(=O)(=O)O |  |  | 2.39 | > 100 µM |  |  |  |  |  |  |  |  | 3.01 | > 100 | 2.91 | > 100 |  |  | > 100 | 3.59
7 | CC12CCC3(OCCO3)C(OC(=O)c3ccccc3)=C1CCC21OCCO1 (centres undefined) |  | > 100 µM |  | > 100 µM |  | > 100 |  | > 100 µM |  | > 100 µM |  | > 100 µM |  | > 100 |  | > 100 |  | > 100 µM |  | 
8 | C[C@@]12CCC[C@@](C)(C(=O)O)C1CC[C@]13C[C@@](O)(CO)[C@](O)(CCC12)C3 (some centres undefined) | > 100 | > 100 µM | > 100 | > 100 µM | > 100 | > 100 | > 100 | > 100 µM |  |  | > 100 | > 100 µM | > 100 | > 100 | > 100 | > 100 | > 100 | > 100 µM | > 100 | > 100
9 | Cc1cccc(C(C)(C)C)c1NC(=O)CC1C(=O)Nc2ccccc2S1(=O)=O (centres undefined) |  | 31.3 µM |  |  |  | 10.7 |  |  |  | 25.3 µM |  | 21.8 µM |  | 24.1 |  | 17.2 |  | 10.2 µM |  | 
10 | Nc1nc2c(ncn2C2C=CC(CO)C2)c(=O)[nH]1 (centres undefined) |  | > 100 µM |  | > 100 µM |  |  |  | > 100 µM |  | > 100 µM |  | > 100 µM |  | > 100 |  | > 100 |  | > 100 µM | > 100 | 
11 | COc1ccc(-c2cc(=O)c3cc(OC)ccc3[nH]2)cc1 |  |  |  | > 100 µM |  | > 100 |  | > 100 µM |  | > 100 µM |  | > 100 µM |  |  |  | > 100 |  |  |  | 
12 | CCC/C(=N\NC(=S)N1CC2CCC(CC2)C1)c1ccccn1 | 1.03 | 2.75 µM and 2.69 µM | 0.0138 | 0.0997 µM and 0.281 µM |  |  | 1.16 | 4.92 µM and 2.7 µM | 0.0362 | 0.879 µM and 1.34 µM | 0.372 | 1.4 µM and 2.21 µM |  | 0.927 |  |  | 1.16 | 1.55 µM and 5.36 µM | 1.39 | 
13 | COc1cc(C2SCC(=O)N2c2ncc(C)s2)cc(OC)c1OC (centres undefined) | 12 | > 50 µM | 17.5 | > 50 µM | 28.7 | > 50 |  |  |  |  | > 50 | > 50 µM | 25.7 | > 50 | 17.2 | > 50 | 13.5 | 43.9 µM | > 50 | 31.4
14 | CN1C(=O)C2C3C=C4c5ccccc5N(c5ccccc5)C4(C2C1=O)[C@H]1C(=O)N(C)C(=O)[C@@H]31 (some centres undefined) |  |  |  | > 100 µM |  | > 100 |  | > 100 µM |  | > 100 µM |  |  |  | > 100 |  | > 100 |  |  |  | 
15 | C/C(=N\NS(=O)(=O)c1ccc(C)cc1)P(=O)(O)O |  | > 100 µM |  | > 100 µM |  |  |  | > 100 µM |  | > 100 µM |  | > 100 µM |  | > 100 |  | > 100 |  | > 100 µM | > 100 | 
16 | [N-]=[N+]=NC(c1cn(C2CC(O)C(CO)O2)c(=O)[nH]c1=O)C(Cl)I (centres undefined) |  |  |  | > 100 µM |  |  |  | > 100 µM |  |  |  | > 100 µM |  | > 100 |  | > 100 |  | > 100 µM |  | 
17 | CCC[CH2][Sn]1([CH2]CCC)[O]CC(CN(C)Cc2ccccc2)[O]1 (centres undefined) | 1.47 | 7.13 µM | 5.31 | 16 µM | 0.473 | 2.08 | 14.1 | 27.7 µM | 3.94 | 19.7 µM | 14.8 | 30.5 µM | 16.4 | 30.3 | 2.75 | 7.79 | 7.2 | 20.6 µM |  | 
18 | COc1ccccc1-c1cc(=O)c2cc3c(cc2[nH]1)OCO3 |  |  |  | 51.5 µM |  | > 100 |  | > 100 µM |  |  |  | > 100 µM |  | > 100 |  | > 100 |  | 70.6 µM |  | 
19 | CO/N=C(\C)c1ccc(Nc2cc(-c3ccccc3)nc3ccc(OC)cc23)cc1 | 2.05 | 5.16 µM | 7.02 | > 100 µM |  |  |  |  | 2.14 | 6.77 µM | 4.56 | > 100 µM | 6.69 | > 100 | 2.79 | 9.64 | 2.72 | 4.74 µM | 16.2 | 4.17
20 | CC(=O)C1C(c2ccc(N(C)C)cc2)c2cc3c(cc2OC1(C)O)OCO3 (centres undefined) |  | 87.8 µM |  | > 100 µM |  | 58.2 |  | > 100 µM |  | 55.4 µM |  | > 100 µM |  | > 100 |  | 83.2 |  |  |  | 
